Data on 4 compounds can be found in patent US20020160932A1, “Uncompetitive inhibitors of helicase-primase” (priority 2000, published 2002).

Where two headings read alike, the source gives them in different places.

The term IC50 denotes the concentration at which inhibition is half-maximal. The ED50 is the dose that gives a 50% effect, or the effect in half of the subjects. The Ki is the equilibrium dissociation constant of an inhibitor or competing ligand from its target.

Experiment [1] deals with HSV-2 MS. The experiment in a line: in vivo lethal challenge model, HSV-2 MS. The following applies: for in vivo lethal challenge model HSV-2 MS ED50: p.o., mice, 3 times a day for 5 days, survival.
Method: (§1) 6-week old female mice, strain BALB/cABom, were purchased from a commercial breeder (Bomholtgard Breeding and Research Centre Ltd).
(§2) The animals were anaesthetized with diethyl ether (Merck) in a sealed glass vessel. 50 μl of a dilution of the virus stock (dose for infection 5×10^4 Pfu) were introduced with an Eppendorf pippette into the nose of the anaesthetized animals. This dose leads to death of 90-100% of the animals due to a generalized infection with prominent respiratory and central nervous symptoms after on average between 5 and 8 days.
(§3) 6 hours after the infection, the animals were treated with doses of 0.1-100 mg/kg of body weight 3 times day at 7.00 h, 14.00 h and 19 h over a period of 5 days. The substances were dissolved in DMSO and resuspended in Tylose/PBS (Hoechst) (final concentration 1.5% DMSO, 0.5% Tylose in PBS).
(§4) After the last administration, the animals were observed further and the times of death were recorded.
Experiment [2] concerns clinical isolates (39 HSV-1 and 19 HSV-2 isolates). The experiment in a line: activity on clinical isolates. The settings on record: 39 HSV-1 and 19 HSV-2 isolates tested. Type of experiment: cell-based, herpes simplex virus.
In experiment [3] the test system is Active substance-resistant HSV-1 (F) mutants. The following applies: read-out: IC50 Active substance-resistant HSV-1 (F) mutants.
Experiment [4] deals with BHV. The experiment in a line: in vitro viral replication assay, bovine BHV.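 For SI bovine BHV: ratio of CC50 to antiviral IC50.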 Type of experiment: cell-based. The settings on record: for IC50: in vitro viral replication assay; for SI bovine BHV: selectivity index SI=(CC50/IC50).
The subject of experiment [5] is Wild-type HSV-1 (F). Kind of experiment: in vitro viral replication assay, wild-type HSV-1 (F).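 For SI Wild-type HSV-1 (F): ratio of CC50 to antiviral IC50.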 Type of experiment: cell-based, herpes simplex virus 1. The following applies: for IC50: in vitro viral replication assay, read-out: IC50 Wild-type HSV-1 (F); for SI Wild-type HSV-1 (F): selectivity index SI=(CC50/IC50).
Experiment [6] relates to HSV-2 G. The experiment in a line: in vitro viral replication assay, human HSV-2 G.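 For SI human HSV-2 G: ratio of CC50 to antiviral IC50.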 The following applies: for IC50: in vitro viral replication assay; for SI human HSV-2 G: selectivity index SI=(CC50/IC50). Type of experiment: cell-based, herpes simplex virus 2.
The subject of experiment [7] is HSV-1 Walkie. Kind of experiment: in vivo lethal challenge model, HSV-1 Walki. The settings on record: for in vivo lethal challenge model HSV-1 Walkie ED50: p.o., mice, 3 times a day for 5 days, survival.
Method: as §1, §2, §3, §4
The test system of experiment [8] is PRV. Kind of experiment: cells. Type of experiment: cell-based, porcine (PRV). The settings on record: for IC50: read-out: IC50 porcine PRV.
The subject of experiment [9] is Acyclovir-resistant HSV-1 (F) mutants. The experiment in a line: microbe, parasite or virus in culture. Type of experiment: cell-based, herpes simplex virus 1.
Experiment [10] has as its system Active substance-resistant HSV-1 (F) mutants. The experiment in a line: microbe, parasite or virus in culture. The following applies: Human alphaherpesvirus 1, read-out: IC50 Active substance-resistant HSV-1 (F) mutants.
In experiment [11] the target is HSV-1 helicase-primase heterodimer enzyme complex (UL5-UL52-6xHis) (Human herpesvirus 1, UniProt P10189+P10236). The experiment in a line: HSV-1 DNA-dependent ATPase assay.
HSV-1 helicase-primase heterodimer enzyme complex (UL5-UL52-6xHis), sequence (P10236 whole entry): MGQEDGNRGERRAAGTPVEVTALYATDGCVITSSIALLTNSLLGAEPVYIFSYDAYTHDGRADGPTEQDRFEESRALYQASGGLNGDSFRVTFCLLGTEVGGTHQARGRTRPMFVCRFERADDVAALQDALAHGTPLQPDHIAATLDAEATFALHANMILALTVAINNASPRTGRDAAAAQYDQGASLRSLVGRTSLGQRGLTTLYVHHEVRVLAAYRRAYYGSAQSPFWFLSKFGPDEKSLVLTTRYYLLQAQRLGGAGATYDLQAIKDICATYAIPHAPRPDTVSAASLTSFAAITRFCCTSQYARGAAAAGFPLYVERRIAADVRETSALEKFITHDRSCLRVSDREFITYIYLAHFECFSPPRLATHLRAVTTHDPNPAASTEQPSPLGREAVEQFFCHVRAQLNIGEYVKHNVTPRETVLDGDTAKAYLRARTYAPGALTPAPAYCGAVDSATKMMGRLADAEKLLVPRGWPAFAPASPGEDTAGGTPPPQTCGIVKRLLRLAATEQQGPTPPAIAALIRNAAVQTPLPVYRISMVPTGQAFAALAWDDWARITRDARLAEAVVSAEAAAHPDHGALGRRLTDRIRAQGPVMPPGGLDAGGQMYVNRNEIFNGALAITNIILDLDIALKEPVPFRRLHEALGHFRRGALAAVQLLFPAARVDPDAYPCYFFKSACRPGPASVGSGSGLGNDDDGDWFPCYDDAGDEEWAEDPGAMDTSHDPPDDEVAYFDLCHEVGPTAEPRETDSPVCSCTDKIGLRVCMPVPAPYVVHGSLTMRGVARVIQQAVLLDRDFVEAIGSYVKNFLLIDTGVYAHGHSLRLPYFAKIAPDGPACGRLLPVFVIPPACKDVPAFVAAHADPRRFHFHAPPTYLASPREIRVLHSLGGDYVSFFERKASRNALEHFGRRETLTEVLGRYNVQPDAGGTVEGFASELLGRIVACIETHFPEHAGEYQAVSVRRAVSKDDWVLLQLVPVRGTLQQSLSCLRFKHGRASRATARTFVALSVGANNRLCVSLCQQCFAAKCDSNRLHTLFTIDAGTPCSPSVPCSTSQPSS
HSV-1 helicase-primase heterodimer enzyme complex (UL5-UL52-6xHis), sequence (P10189 whole entry): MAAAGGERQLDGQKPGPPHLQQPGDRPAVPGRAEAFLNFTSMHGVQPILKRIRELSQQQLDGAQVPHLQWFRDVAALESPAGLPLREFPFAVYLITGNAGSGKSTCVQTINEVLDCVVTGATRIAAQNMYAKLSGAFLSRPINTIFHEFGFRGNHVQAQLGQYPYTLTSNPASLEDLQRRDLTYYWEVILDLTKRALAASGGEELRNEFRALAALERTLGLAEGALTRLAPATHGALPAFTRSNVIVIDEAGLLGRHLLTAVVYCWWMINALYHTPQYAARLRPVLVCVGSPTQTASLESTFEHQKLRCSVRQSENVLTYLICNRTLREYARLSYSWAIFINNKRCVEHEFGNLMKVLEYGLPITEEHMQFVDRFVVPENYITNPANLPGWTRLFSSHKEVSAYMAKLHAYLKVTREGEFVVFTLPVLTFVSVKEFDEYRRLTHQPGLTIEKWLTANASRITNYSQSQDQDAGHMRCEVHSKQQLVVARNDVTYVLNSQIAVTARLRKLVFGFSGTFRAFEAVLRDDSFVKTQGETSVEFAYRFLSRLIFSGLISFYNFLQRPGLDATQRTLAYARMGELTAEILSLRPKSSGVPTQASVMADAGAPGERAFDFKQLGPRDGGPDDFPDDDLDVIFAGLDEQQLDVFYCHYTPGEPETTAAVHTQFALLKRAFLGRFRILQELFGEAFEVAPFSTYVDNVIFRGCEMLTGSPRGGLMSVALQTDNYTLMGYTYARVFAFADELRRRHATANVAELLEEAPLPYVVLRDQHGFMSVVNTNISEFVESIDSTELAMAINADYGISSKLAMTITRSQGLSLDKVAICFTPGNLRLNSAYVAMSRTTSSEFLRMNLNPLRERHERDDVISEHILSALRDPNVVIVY
From the text: HSV-1 DNA-dependent ATPase assay (this in vitro assay permits testing for inhibition of the HSV-1 helicase-primase).
The HSV-1 helicase-primase heterodimer enzyme complex was [lacuna] with the aid of the recombinant baculovirus expression system in doubly infected Sf9 (Spodoptera frugiperda) cells. One recombinant baculovirus codes for the UL5 helicase gene and the second virus codes for the manipulated UL52-6×His primase gene.
The genes were amplified from the HSV-1 (F) genome by PCR (American Tissue Culture Collection ATCC VR-733) and cloned into the baculovirus (UL5→pFASTBAC1; UL52→pFASTHTb) as described in detail in the instruction manual for BAC-TO-BAC Baculovirus Expression Systems, Life-Technologies.
The purified heterodimeric helicase-primase complex (200 ng) was incubated with 1 μg of DNA (Sigma D3287 or D8681) in 20 mM HEPES (pH 7.6; 4-(2-hydroxyethyl)-1-piperazineethanesulphonic acid), 5 mM MgCl2, 0.2-5 mM ATP, 100 μg of BSA (bovine serum albumin) per ml, 10% glycerol, 1 mM DTT (DL-dithiothreitol) and, where appropriate, inhibitor in the appropriate concentration at 37° C. for 60 min.
The inhibition of the DNA-dependent ATPase activity was calculated from the change in the absorption in the presence and absence of inhibitor.
The Ki values were calculated with the assistance of the Sigma Plot software 4.0 and the method of nonlinear curve regression.
For this purpose, the ATPase activity of the helicase-primase heterodimer (detection through formation of inorganic phosphate (Pi)) was measured in the presence of saturated DNA concentrations and varying ATP and inhibitor concentrations, as explained in the ATPase assay section.

As for `CNS(=O)(=O)c1sc(N(C)C(=O)Cc2ccc(-c3ccccc3)cc2)nc1C` [Example 4], in experiment [1], the “in vivo lethal challenge model HSV-2 MS ED50” value stood at 3 mg/kg. In addition, in experiment [2], the “activity on clinical isolates” value is given as “active on all the clinical isolates tested to date”. The 50% inhibitory concentration (IC50) in experiment [3] (Mutant 2 (UL5 K356N)) is greater than 250 µM; in [3] (Mutant 6 (UL52 A897T)), greater than 1 µM; in [4], 0.15 µM; in experiment [5], 0.0005 µM; in [6] it was 0.05 µM; in experiment [8] it was 3 µM. Also, the “SI bovine BHV” value in experiment [4] is reported as 400. Also, the “SI Wild-type HSV-1 (F)” value in experiment [5] is 1E+05. Further, in experiment [6], the “SI human HSV-2 G” value came out at 5000. The “in vivo lethal challenge model HSV-1 Walkie ED50” value in [7] is recorded as 1 mg/kg. Besides, in experiment [8], the “SI porcine PRV” value was 66.
Take `Cc1nc(N(C)C(=O)Nc2ccc(N3CCOCC3)cc2)sc1S(=O)(=O)N(C)C` [Example 1]: the “in vivo lethal challenge model HSV-2 MS ED50” value in experiment [1] is reported as “weak”. Besides, the IC50 is 0.75 µM in [9] (in vitro viral replication assay, read-out: IC50 Acyclovir-resistant HSV-1 (F) mutants); greater than 250 µM in experiment [3] (Mutant 1 (UL5 M355V, UL5 V6621, UL52 A897T)); 1.5 µM in experiment [4]; 0.75 µM in experiment [5]; 1.5 µM in [6]; 4 µM in experiment [8]. The “activity on clinical isolates” value in [2] is on record as “active on all the clinical isolates tested to date”. Besides, the “SI bovine BHV” value in [4] was greater than 167. Besides, the “SI Wild-type HSV-1 (F)” value in experiment [5] turned out to be 350. In addition, the “SI human HSV-2 G” value in [6] was determined as 167. Besides, the “in vivo lethal challenge model HSV-1 Walkie ED50” value in experiment [7] was determined as 60 mg/kg. Also, in experiment [8], the “SI porcine PRV” value is greater than 63.
For the compound `Nc1nc2c(ncn2COCCO)c(=O)[nH]1` [Acyclovir, acyclovir, reference compound], the IC50 in [10] was 1 µM; in [9] (Human alphaherpesvirus 1, read-out: IC50 Acyclovir-resistant HSV-1 (F) mutants), 125 µM; in experiment [5] (Human alphaherpesvirus 1), 1 µM; in experiment [6] (Human alphaherpesvirus 2) it was 4 µM. Further, the ED50 was determined as 16 mg/kg in experiment [1] (Human alphaherpesvirus 2, in Mus musculus, po, 120 h, read-out: in vivo lethal challenge model HSV-2 MS ED50, p.o., mice, 3 times a day for 5 days, survival) and 22 mg/kg in experiment [7] (Human alphaherpesvirus 1, in Mus musculus, po, 120 h, read-out: in vivo lethal challenge model HSV-1 Walkie ED50). In experiment [5], the “SI Wild-type HSV-1 (F)” value is 250. For the same compound, the “SI human HSV-2 G” value in experiment [6] is listed as 125.
Turning to `Cc1nc(N(C)C(=O)Cc2ccc(-c3cc(F)ccc3F)cc2)sc1S(N)(=O)=O` [Example 6], the “in vivo lethal challenge model HSV-2 MS ED50” value in experiment [1] is listed as 0.5 mg/kg. In experiment [2], the “activity on clinical isolates” value is recorded as “active on all the clinical isolates tested to date”. Also, the IC50 was greater than 125 µM in [3] (M1 + M2 (UL5 G352V)), 0.03 µM in experiment [4] and 1.5 µM in [8]. For the same compound, the “SI bovine BHV” value in [4] turned out to be 6660. In addition, the “Concentration of liberated inorganic phosphate” value (“Concentration” for short) in experiment [11] (inhibitor 0.00128 μM, ATP 0.3 mM) is 0.066 mM; in experiment [11] (inhibitor 0.00128 μM, ATP 0.4 mM), 0.067 mM; in experiment [11] (inhibitor 0.00128 μM, ATP 0.6 mM) it was 0.085 mM; in experiment [11] (inhibitor 0.00128 μM, ATP 0.8 mM) it was 0.099 mM; in experiment [11] (inhibitor 0.00128 μM, ATP 1 mM), 0.108 mM; in [11] (inhibitor 0.00128 μM, ATP 3 mM) it was 0.127 mM. For the same compound, the “Concentration” value is given as 0.040 mM in experiment [11] (inhibitor 0.0064 μM, ATP 0.3 mM); 0.045 mM in experiment [11] (inhibitor 0.0064 μM, ATP 0.4 mM); 0.062 mM in experiment [11] (inhibitor 0.0064 μM, ATP 0.6 mM); 0.064 mM in experiment [11] (inhibitor 0.0064 μM, ATP 0.8 mM); 0.071 mM in experiment [11] (inhibitor 0.0064 μM, ATP 1 mM); 0.113 mM in experiment [11] (inhibitor 0.0064 μM, ATP 3 mM). The “Concentration” value worked out at 0.025 mM in experiment [11] (inhibitor 0.032 μM, ATP 0.3 mM); 0.029 mM in experiment [11] (inhibitor 0.032 μM, ATP 0.4 mM); 0.037 mM in [11] (inhibitor 0.032 μM, ATP 0.6 mM); 0.044 mM in experiment [11] (inhibitor 0.032 μM, ATP 0.8 mM); 0.055 mM in [11] (inhibitor 0.032 μM, ATP 1 mM); 0.085 mM in experiment [11] (inhibitor 0.032 μM, ATP 3 mM). The “Concentration” value came out at 0.017 mM in [11] (inhibitor 0.16 μM, ATP 0.3 mM); 0.022 mM in experiment [11] (inhibitor 0.16 μM, ATP 0.4 mM); 0.029 mM in [11] (inhibitor 0.16 μM, ATP 0.6 mM); 0.033 mM in experiment [11] (inhibitor 0.16 μM, ATP 0.8 mM); 0.040 mM in [11] (inhibitor 0.16 μM, ATP 1 mM); 0.066 mM in experiment [11] (inhibitor 0.16 μM, ATP 3 mM). The “Concentration” value in [11] (inhibitor 0.8 μM, ATP 0.3 mM) came to 0.010 mM; in [11] (inhibitor 0.8 μM, ATP 0.4 mM), 0.013 mM; in [11] (inhibitor 0.8 μM, ATP 0.6 mM), 0.019 mM; in [11] (inhibitor 0.8 μM, ATP 0.8 mM), 0.023 mM; in experiment [11] (inhibitor 0.8 μM, ATP 1 mM), 0.027 mM; in [11] (inhibitor 0.8 μM, ATP 3 mM), 0.054 mM. The “Concentration” value in experiment [11] (inhibitor 4 μM, ATP 0.3 mM) is given as 0.006 mM; in experiment [11] (inhibitor 4 μM, ATP 0.4 mM) it was 0.007 mM; in experiment [11] (inhibitor 4 μM, ATP 0.6 mM) it was 0.010 mM; in experiment [11] (inhibitor 4 μM, ATP 0.8 mM) it was 0.012 mM; in experiment [11] (inhibitor 4 μM, ATP 1 mM), 0.018 mM; in experiment [11] (inhibitor 4 μM, ATP 3 mM), 0.044 mM. Also, the “Concentration” value is on record as 0.004 mM in experiment [11] (inhibitor 20 μM, ATP 0.3 mM); 0.004 mM in experiment [11] (inhibitor 20 μM, ATP 0.4 mM); 0.006 mM in experiment [11] (inhibitor 20 μM, ATP 0.6 mM); 0.010 mM in [11] (inhibitor 20 μM, ATP 0.8 mM); 0.008 mM in [11] (inhibitor 20 μM, ATP 1 mM); 0.030 mM in [11] (inhibitor 20 μM, ATP 3 mM). Besides, the “Concentration” value was found to be 0.005 mM in experiment [11] (inhibitor 100 μM, ATP 0.3 mM); 0.006 mM in [11] (inhibitor 100 μM, ATP 0.4 mM); 0.008 mM in experiment [11] (inhibitor 100 μM, ATP 0.6 mM); 0.008 mM in experiment [11] (inhibitor 100 μM, ATP 0.8 mM); 0.014 mM in [11] (inhibitor 100 μM, ATP 1 mM); 0.032 mM in [11] (inhibitor 100 μM, ATP 3 mM). In experiment [11] (read-out: in vitro ATPase inhibition wild-type HSV-1 (F) Ki, nonlinear curve regression), the inhibition constant Ki amounted to 0.007 µM. Further, the “type of ATPase inhibition (mechanism)” value in experiment [11] (wild-type HSV-1 (F) helicase-primase) was “un-”. Besides, the “in vivo lethal challenge model HSV-1 Walkie ED50” value in experiment [7] is greater than 0.5 mg/kg. For the same compound, the “SI porcine PRV” value in [8] amounted to 133.
